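Tested at 5 concentrations; 48 h exposure; 96-well plates; endpoints linearly interpolated, else capped at highest concentration. TGI marks complete inhibition of growth.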 Bounds are passed on as bounds.

Among the test systems are COLO 205 colon; HOP-62 NSCLC; HS 578T breast; M14 melanoma; MDA-MB-435; MDA-N; NCI-H23 lung; NCI-H522 lung; OVCAR-5 ovarian; PC-3 prostate; SF-295 CNS; SF-539 CNS; SK-MEL-28 melanoma; SK-OV-3 ovarian; SR leukemia; UACC-257 melanoma; UACC-62 melanoma; HCT-116 colon; HL-60(TB) leukemia.
Holding throughout (experiment): NCI tumour cell line growth inhibition, 48 h

On to `Cc1oc2c(c1C)S(=O)(=O)C(C#N)=C(c1ccccc1)N2`, for which the TGI in the assay on COLO 205 colon, in the assay with HOP-62 NSCLC, in the assay with HS 578T breast, in the assay with M14 melanoma, in the assay on MDA-MB-435 and in the assay with MDA-N was above 100 µM throughout. Moreover, the TGI in the assay on NCI-H23 lung, in the assay on NCI-H522 lung, in the assay with OVCAR-5 ovarian, in the assay with PC-3 prostate, in the assay with SF-295 CNS and in the assay on SF-539 CNS was above 100 µM throughout. The TGI in the assay with SK-MEL-28 melanoma, with SK-OV-3 ovarian, in the assay on SR leukemia, with UACC-257 melanoma and with UACC-62 melanoma was above 100 µM each time.
As to `O=C(O)c1ccc(P(=O)(O)c2ccc(C(=O)O)cc2Br)c(Br)c1`, the TGI in the assay on COLO 205 colon, with HCT-116 colon, in the assay with HL-60(TB) leukemia, in the assay with HOP-62 NSCLC, in the assay on HS 578T breast and in the assay on M14 melanoma was above 100 µM each time. The TGI in the assay on MDA-MB-435, in the assay with MDA-N, in the assay with NCI-H23 lung, in the assay on NCI-H522 lung, in the assay on PC-3 prostate and with SF-295 CNS was above 100 µM throughout. Besides, the TGI in the assay with SF-539 CNS, in the assay with SK-MEL-28 melanoma, in the assay with SK-OV-3 ovarian, with UACC-257 melanoma and in the assay with UACC-62 melanoma was above 100 µM in each case.
`O=c1[nH]n(Cc2ccccc2Cl)c2ccc([N+](=O)[O-])cc12`: the TGI in the assay with COLO 205 colon, with HCT-116 colon, in the assay with HL-60(TB) leukemia, in the assay on HOP-62 NSCLC, in the assay on HS 578T breast and in the assay with M14 melanoma was above 100 µM in each case. In addition, the TGI in the assay on MDA-MB-435, in the assay on MDA-N, in the assay on NCI-H23 lung, with NCI-H522 lung, with OVCAR-5 ovarian and in the assay with SF-539 CNS was above 100 µM throughout. Also, the TGI in the assay with SK-MEL-28 melanoma, with SR leukemia, in the assay on UACC-257 melanoma and in the assay with UACC-62 melanoma was above 100 µM each time.
As for `CNc1c2cccc(C)c2nc2c(C(=O)NCCN(C)C)cccc12`, the TGI with COLO 205 colon is 0.278 µM; in the assay on HCT-116 colon it was 0.453 µM; in the assay on HOP-62 NSCLC, 0.578 µM; in the assay on HS 578T breast, 0.497 µM; in the assay on M14 melanoma, 0.887 µM; in the assay on MDA-MB-435 it was 0.34 µM. For the same compound, the TGI in the assay on MDA-N was 0.328 µM; in the assay with NCI-H23 lung, 0.286 µM; with NCI-H522 lung, 0.109 µM; in the assay on OVCAR-5 ovarian it was 1.1 µM; in the assay on PC-3 prostate it was 0.88 µM; in the assay on SF-295 CNS, 0.952 µM. Besides, the TGI in the assay with SF-539 CNS stood at 0.245 µM; in the assay with SK-MEL-28 melanoma, 1.17 µM; in the assay on SK-OV-3 ovarian it was 1.94 µM; with SR leukemia, 0.469 µM; in the assay on UACC-257 melanoma, 1.24 µM; in the assay on UACC-62 melanoma, 0.402 µM.
With `O=C(c1cc(Cl)cc(Cl)c1)N(C(=O)N1CCN(c2ccccc2)CC1)c1ccccc1`, the TGI in the assay with COLO 205 colon was 39.6 µM; with HCT-116 colon, above 100 µM; in the assay on HL-60(TB) leukemia, above 100 µM; with HOP-62 NSCLC, above 100 µM; in the assay on HS 578T breast it was above 100 µM; with M14 melanoma, above 100 µM. Further, the TGI in the assay with MDA-MB-435 is 48.5 µM; in the assay with MDA-N, 30.3 µM; with NCI-H23 lung it was above 100 µM; in the assay with NCI-H522 lung, above 100 µM; in the assay with OVCAR-5 ovarian, above 100 µM; in the assay with PC-3 prostate it was above 100 µM. The TGI in the assay with SF-295 CNS, in the assay on SF-539 CNS, in the assay with SK-MEL-28 melanoma, with SK-OV-3 ovarian, with UACC-257 melanoma and with UACC-62 melanoma was above 100 µM in each case.
Consider `COc1cccc(OC/C(N=Cc2cccnc2)=N/NC(=O)c2ccncc2)c1`, for which the TGI in the assay on COLO 205 colon, in the assay on HCT-116 colon, in the assay on HL-60(TB) leukemia, with HOP-62 NSCLC, in the assay on HS 578T breast and with M14 melanoma was above 100 µM in each case. In addition, the TGI with MDA-MB-435, in the assay on MDA-N, in the assay on NCI-H23 lung, in the assay on NCI-H522 lung, in the assay with OVCAR-5 ovarian and with PC-3 prostate was above 100 µM each time. Besides, the TGI in the assay on SF-295 CNS, in the assay with SF-539 CNS, in the assay on SK-MEL-28 melanoma, in the assay on SK-OV-3 ovarian, with UACC-257 melanoma and in the assay on UACC-62 melanoma was above 100 µM throughout.
Consider `CCN(CC)C1Oc2cc3c(cc2C(c2ccc(OC)cc2)C1C)OCO3` (centres undefined), for which the TGI in the assay on COLO 205 colon worked out at 34.5 µM; with HCT-116 colon it was 29.2 µM; in the assay on HOP-62 NSCLC, 54.9 µM; with HS 578T breast, 48.2 µM; in the assay on M14 melanoma it was 51.4 µM; in the assay on MDA-MB-435, 39.1 µM. Moreover, the TGI in the assay on MDA-N was 65.5 µM; in the assay with NCI-H23 lung, 51 µM; in the assay on NCI-H522 lung, 35.8 µM; with OVCAR-5 ovarian, 58.9 µM; in the assay on PC-3 prostate, 72.6 µM; in the assay on SF-295 CNS it was 63.1 µM. For the same compound, the TGI in the assay with SF-539 CNS turned out to be 40.1 µM; in the assay on SK-MEL-28 melanoma it was 50.8 µM; in the assay with SK-OV-3 ovarian, 97.4 µM; in the assay on SR leukemia, 27.6 µM; in the assay with UACC-257 melanoma, 35.1 µM; in the assay on UACC-62 melanoma it was 42.1 µM.
For `CC1(C)CN=C(c2ccc3c(c2)Cc2cc(C4=NCC(C)(C)N4)ccc2-3)N1`, the TGI is above 100 µM with COLO 205 colon; above 100 µM in the assay with HCT-116 colon; above 100 µM in the assay with HOP-62 NSCLC; above 100 µM with HS 578T breast; above 100 µM with M14 melanoma; 98.9 µM in the assay on MDA-MB-435. In addition, the TGI in the assay with MDA-N is above 100 µM; with NCI-H23 lung, above 100 µM; in the assay with NCI-H522 lung, 83.6 µM; with OVCAR-5 ovarian, above 100 µM; with PC-3 prostate, above 100 µM; with SF-295 CNS it was above 100 µM. Moreover, the TGI in the assay with SK-MEL-28 melanoma was above 100 µM; in the assay with SK-OV-3 ovarian it was above 100 µM; with SR leukemia, above 100 µM; with UACC-257 melanoma, above 100 µM; in the assay on UACC-62 melanoma it was 69.5 µM.

These data come from PubChem BioAssay (NCI).
